{"source": "PubChem BioAssay AID1259409", "about": "(Chemical Carcinogenesis Research Information System (CCRIS), 2018)", "origin": "cited, not measured here", "system": "rodent chemically induced tumor inhibition, incidence and multiplicity", "assay": "CCRIS tumor inhibitor studies", "conditions": "Carcinogen: 7,12-DIMETHYLBENZ[A]ANTHRACENE, 57-97-6, Dose [Inhibitor]: 0, Route [Inhibitor]: ORAL, Species: FISH, FEMALE, Promoter: NONE USED", "data": [{"smiles": "O=c1oc2c(O)c(O)cc3c(=O)oc4c(O)c(O)cc1c4c23", "values": [{"measurement": "tumour outcome (control, treated, inhibition, significance)", "setting": "1000 PPM IN DIET FOR 17 WK BEGINNING POST CARCINOGEN TREATMENT (STUDY DURATION: 42 WK), Strain/Sex: RAINBOW TROUT/ MALE, Target Tissue: Type of Lesion: SWIM BLADDER: TUMOR, Dose [Carcinogen]: 5.5 PPM IN WATER FOR 1 HR", "value": "15%, 6%, 60%, p<0.05"}, {"measurement": "tumour outcome (control, treated, inhibition, significance)", "setting": "1000 PPM IN DIET FOR 17 WK BEGINNING POST CARCINOGEN TREATMENT (STUDY DURATION: 42 WK), Strain/Sex: RAINBOW TROUT/MALE, Target Tissue: Type of Lesion: LIVER: TUMOR, Dose [Carcinogen]: 5.5 PPM IN WATER FOR 1 HR", "value": "5%, 11%, -120%, p<0.05"}, {"measurement": "tumour outcome (control, treated, inhibition, significance)", "setting": "1000 PPM IN DIET FOR DURATION OF STUDY BEGINNING CONCURRENTLY WITH CARCINOGEN TREATMENT (STUDY DURATION: 42 WK), Strain/Sex: RAINBOW TROUT/ MALE, Target Tissue: Type of Lesion: STOMACH: TUMOR, Dose [Carcinogen]: 750 PPM IN DIET FOR 7 WK", "value": "85%, 78%, 8%, p<0.05"}, {"measurement": "tumour outcome (control, treated, inhibition, significance)", "setting": "1000 PPM IN DIET FOR DURATION OF STUDY BEGINNING CONCURRENTLY WITH CARCINOGEN TREATMENT (STUDY DURATION: 42 WK), Strain/Sex: RAINBOW TROUT/ MALE, Target Tissue: Type of Lesion: SWIM BLADDER: TUMOR, Dose [Carcinogen]: 750 PPM IN DIET FOR 7 WK", "value": "1%, 1%, 0%, not significant"}, {"measurement": "tumour outcome (control, treated, inhibition, significance)", "setting": "1000 PPM IN DIET FROM 3 WK PRIOR TO CARCINOGEN TREATMENT TO 3 D POST CARCINOGEN TREATMENT (STUDY DURATION: 42 WK), Strain/Sex: RAINBOW TROUT/MALE, Target Tissue: Type of Lesion: LIVER: TUMOR, Dose [Carcinogen]: 4.16 PPM IN WATER FOR 1 HR", "value": "7%, 16%, -129%, p<0.001"}, {"measurement": "tumour outcome (control, treated, inhibition, significance)", "setting": "1000 PPM IN DIET FROM 3 WK PRIOR TO CARCINOGEN TREATMENT TO 3D POST CARCINOGEN TREATMENT (STUDY DURATION: 42 WK), Strain/Sex: RAINBOW TROUT/MALE, Target Tissue: Type of Lesion: STOMACH: TUMOR, Dose [Carcinogen]: 4.16 PPM IN WATER FOR 1 HR", "value": "97%, 92%, 5%, not significant"}, {"measurement": "tumour outcome (control, treated, inhibition, significance)", "setting": "1000 PPM IN DIET FROM 3 WK PRIOR TO CARCINOGEN TREATMENT TO 3 D POST CARCINOGEN TREATMENT (STUDY DURATION: 42 WK), Strain/Sex: RAINBOW TROUT/MALE, Target Tissue: Type of Lesion: SWIM BLADDER: TUMOR, Dose [Carcinogen]: 4.16 PPM IN WATER FOR 1 HR", "value": "14%, 50%, -257%, p<0.001"}, {"measurement": "tumour outcome (control, treated, inhibition, significance)", "setting": "2000 PPM IN DIET FOR 17 WK BEGINNING POST CARCINOGEN TREATMENT (STUDY DURATION: 42 WK), Strain/Sex: RAINBOW TROUT/ MALE, Target Tissue: Type of Lesion: STOMACH: TUMOR, Dose [Carcinogen]: 5.5 PPM IN WATER FOR 1 HR", "value": "88%, 19%, 78%, p<0.001"}, {"measurement": "tumour outcome (control, treated, inhibition, significance)", "setting": "2000 PPM IN DIET FOR 17 WK BEGINNING POST CARCINOGEN TREATMENT (STUDY DURATION: 42 WK), Strain/Sex: RAINBOW TROUT/ MALE, Target Tissue: Type of Lesion: SWIM BLADDER: TUMOR, Dose [Carcinogen]: 5.5 PPM IN WATER FOR 1 HR", "value": "15%, 6%, 60%, p<0.05"}, {"measurement": "tumour outcome (control, treated, inhibition, significance)", "setting": "2000 PPM IN DIET FOR 17 WK BEGINNING POST CARCINOGEN TREATMENT (STUDY DURATION: 42 WK), Strain/Sex: RAINBOW TROUT/MALE, Target Tissue: Type of Lesion: LIVER: TUMOR, Dose [Carcinogen]: 5.5 PPM IN WATER FOR 1 HR", "value": "5%, 10%, -100%, p<0.05"}, {"measurement": "tumour outcome (control, treated, inhibition, significance)", "setting": "2000 PPM IN DIET FROM 1 WK PRIOR TO CARCINOGEN TREATMENT TO 3 D POST CARCINOGEN (STUDY DURATION: 42 WK), Strain/Sex: RAINBOW TROUT/ MALE, Target Tissue: Type of Lesion: SWIM-BLADDER: TUMOR, Dose [Carcinogen]: 5.5 PPM IN WATER FOR 1 HR", "value": "15%, 7%, 53%, p<0.05"}, {"measurement": "tumour outcome (control, treated, inhibition, significance)", "setting": "2000 PPM IN DIET FROM 1 WK PRIOR TO CARCINOGEN TREATMENT TO 3 D POST CARCINOGEN TREATMENT (STUDY DURATION: 42 WK), Strain/Sex: RAINBOW TROUT/ MALE, Target Tissue: Type of Lesion: LIVER: TUMOR, Dose [Carcinogen]: 5.5 PPM IN WATER FOR 1 HR", "value": "5%, 3%, 40%, not significant"}]}]}
